# Molecular target: T1, Fatty-acid amide hydrolase 1 (Rattus norvegicus, UniProt P97612)
# T1 sequence (P97612 whole entry): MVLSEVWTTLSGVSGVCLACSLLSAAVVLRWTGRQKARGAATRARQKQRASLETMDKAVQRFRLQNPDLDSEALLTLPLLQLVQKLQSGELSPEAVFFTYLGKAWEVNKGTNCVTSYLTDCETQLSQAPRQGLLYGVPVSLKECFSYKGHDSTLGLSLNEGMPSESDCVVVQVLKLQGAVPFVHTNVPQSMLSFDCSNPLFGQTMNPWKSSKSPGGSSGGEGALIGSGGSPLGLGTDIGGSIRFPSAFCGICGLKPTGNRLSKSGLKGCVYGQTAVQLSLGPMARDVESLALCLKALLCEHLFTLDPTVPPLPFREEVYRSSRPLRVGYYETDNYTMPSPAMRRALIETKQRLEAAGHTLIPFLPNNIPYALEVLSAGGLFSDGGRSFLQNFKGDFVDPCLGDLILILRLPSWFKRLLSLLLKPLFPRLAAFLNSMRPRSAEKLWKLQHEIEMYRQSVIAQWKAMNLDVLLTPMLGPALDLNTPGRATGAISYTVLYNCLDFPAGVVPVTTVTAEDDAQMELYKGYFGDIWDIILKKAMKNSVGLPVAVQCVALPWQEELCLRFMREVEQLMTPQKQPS
# Test: Inhibition of rat FAAH preincubated for 10 mins
row,IC50,SMILES
1,25.7 nM,O=C(Nc1ccon1)N1CCN(c2nc(-c3ccccc3)ns2)CC1
2,1.35 nM,O=C(Nc1cccc2nsnc12)N1CCN(c2nc(-c3ccccc3)ns2)CC1
3,6.3 nM,O=C(Nc1ccncn1)N1CCN(c2nc(-c3ccccc3)ns2)CC1
4,28.8 nM,COc1cc(NC(=O)N2CCN(c3nc(-c4ccccc4)ns3)CC2)ncn1
5,638 nM,O=C(Nc1cc(-c2ccccc2)n[nH]1)N1CCN(c2nc(-c3ccccc3)ns2)CC1
6,188 nM,N#Cc1cncnc1NC(=O)N1CCN(c2nc(-c3ccccc3)ns2)CC1
7,> 10000 nM,Cc1cnc(NC(=O)N2CCN(c3nc(-c4ccccc4)ns3)CC2)s1
8,26 nM,O=C(Nc1ccncc1)N1CCN(c2nc(-c3ccccc3)ns2)CC1

# Molecular target: T2, Fatty-acid amide hydrolase 1 (Homo sapiens, UniProt O00519)
# T2 sequence (O00519 whole entry): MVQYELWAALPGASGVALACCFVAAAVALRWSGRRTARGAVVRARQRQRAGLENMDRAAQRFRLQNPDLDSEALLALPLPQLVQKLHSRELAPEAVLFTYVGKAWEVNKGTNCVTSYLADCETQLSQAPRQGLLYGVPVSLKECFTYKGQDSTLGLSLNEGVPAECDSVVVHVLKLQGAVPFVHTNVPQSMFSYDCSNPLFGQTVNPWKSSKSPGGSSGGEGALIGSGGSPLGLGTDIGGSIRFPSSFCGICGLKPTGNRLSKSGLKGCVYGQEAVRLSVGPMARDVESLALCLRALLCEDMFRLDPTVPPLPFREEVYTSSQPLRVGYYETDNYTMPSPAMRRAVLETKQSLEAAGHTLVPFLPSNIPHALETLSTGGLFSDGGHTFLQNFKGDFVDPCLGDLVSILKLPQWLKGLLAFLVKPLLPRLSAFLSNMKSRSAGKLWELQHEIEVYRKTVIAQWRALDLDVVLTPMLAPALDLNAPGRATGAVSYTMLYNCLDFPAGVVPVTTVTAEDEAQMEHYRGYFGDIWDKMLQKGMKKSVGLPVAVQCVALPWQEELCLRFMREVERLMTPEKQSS
# Test: Inhibition of human FAAH preincubated for 10 mins
row,IC50,SMILES
1,70 nM,O=C(Nc1ccon1)N1CCN(c2nc(-c3ccccc3)ns2)CC1
2,2.02 nM,O=C(Nc1cccc2nsnc12)N1CCN(c2nc(-c3ccccc3)ns2)CC1
3,10.3 nM,O=C(Nc1ccncn1)N1CCN(c2nc(-c3ccccc3)ns2)CC1
4,13 nM,COc1cc(NC(=O)N2CCN(c3nc(-c4ccccc4)ns3)CC2)ncn1
5,1040 nM,O=C(Nc1cc(-c2ccccc2)n[nH]1)N1CCN(c2nc(-c3ccccc3)ns2)CC1
6,253 nM,N#Cc1cncnc1NC(=O)N1CCN(c2nc(-c3ccccc3)ns2)CC1
7,> 10000 nM,Cc1cnc(NC(=O)N2CCN(c3nc(-c4ccccc4)ns3)CC2)s1
8,26.7 nM,O=C(Nc1ccncc1)N1CCN(c2nc(-c3ccccc3)ns2)CC1

# Molecular target: T2, Fatty-acid amide hydrolase 1
# Test: Inhibition of human FAAH preincubated for 20 mins
row,IC50,SMILES
1,1300 nM,Cc1ccc(NC(=O)N2CCN(c3nc(-c4ccccc4)ns3)CC2)cc1
2,10000 nM,O=C(Nc1ccc([N+](=O)[O-])cc1)N1CCN(c2nc(-c3ccccc3)ns2)CC1

# Molecular target: T1, Fatty-acid amide hydrolase 1
# Test: Inhibition of rat FAAH preincubated for 20 mins
row,IC50,SMILES
1,1270 nM,Cc1ccc(NC(=O)N2CCN(c3nc(-c4ccccc4)ns3)CC2)cc1
2,> 10000 nM,O=C(Nc1ccc([N+](=O)[O-])cc1)N1CCN(c2nc(-c3ccccc3)ns2)CC1

# Reference: ChEMBL document CHEMBL1139400, “Thiadiazolopiperazinyl ureas as inhibitors of fatty acid amide hydrolase” (Bioorg Med Chem Lett, 2008)
